Reference: ChEMBL document CHEMBL1158994, “Methylpendolmycin, an indolactam from a Nocardiopsis sp” (J Nat Prod, 1991)
Values after ≈ are worked out from the molar mass of the structure shown.

Target: Protein kinase C (PKC)
Test: Displacement of radiolabeled PDBU from PKC in rat forebrain
Format: tissue-based

| IC50 | Ki | SMILES |
| --- | --- | --- |
| 0.0135 µg/mL (≈ 0.0352 µM) | – | C=CC(C)(C)c1ccc2c3c(c[nH]c13)C[C@@H](CO)NC(=O)[C@H]([C@@H](C)CC)N2C [METHYLPENDOLMYCIN] |
| – | 500 nM | CCCCCCCCCCCCCC(=O)O[C@@H]1[C@@H](C)[C@@]2(O)[C@@H](C=C(CO)C[C@]3(OC)C(=O)C(C)=C[C@@H]23)[C@@H]2C(C)(C)[C@]12OC(C)=O |
